Experiment: gradient 5% acetonitrile 3 min, to 50% in 2 min, to 85% in 15 min, held 3 min, 100 µL/min
Settings: column: Zorbax Extend-C18 2.1 x 50 mm; eluents: water / acetonitrile, 0.1% formic acid
Summary of the method: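 A Zorbax Extend-C18 column (2.1 × 50 mm, 1.8 μm) run at 100 μL/min with water and acetonitrile, both containing 0.1% formic acid, separated mixtures of ~100 pure standards. The HPLC was coupled to a quadrupole time-of-flight mass spectrometer operated in positive and negative ionization mode, with dead and dwell volumes of 40 μL and 900 μL. Each retention time was taken from a computationally picked adduct peak that was then manually inspected.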

SMILES | RP-LC retention time
Cc1ccc(C)c(-c2coc(-c3ccc(NC(=O)NCc4cccc(F)c4)cc3)n2)c1 | 1190 s
Cc1cn2c(S(=O)(=O)NC3CCCCC3)c(C(C)C)nc2s1 | 999 s
COc1nn(C)cc1C(=O)Nc1cc(C(F)(F)F)ccc1Cl | 980 s
CCc1cccc(NC(=O)c2c(C)oc3nc(C)nc(N4CCCC4)c23)c1 | 861 s
Cc1ccc(F)c(NS(=O)(=O)c2ccc(-c3nnc(C4CCC4)o3)o2)c1 | 924 s
COc1ccc(CCC(=O)N2CCC3(C2)C(=O)Nc2ccc(OC)cc23)cc1 (stereo not given) | 751 s
N#CC(c1ccccc1)C(C/C(=N\O)c1ccccc1)c1ccccc1 (stereo not given) | 1090 s
CCCOc1cc(S(=O)(=O)NCCCn2ccnc2)ccc1Cl | 596 s
CCN1C(=O)C2CC3(CCN(C(=O)c4cccs4)CC3)CN2C1=O (stereo not given) | 701 s
O=C(Nc1cnn(-c2ncc(N3CCSCC3)cn2)c1)NC1CCCC1 | 848 s
Cc1ccc(Nc2c(-c3cccc(O)c3)nc3cnccn23)cc1Cl | 829 s
COc1ccc(-c2noc(Cn3ccn(-c4ccc(Cl)cc4)c(=O)c3=O)n2)cc1OC | 803 s
O=S(=O)(Nc1ccc(Cl)cn1)c1cc(-c2noc(C3CCCC3)n2)cs1 | 1070 s
O=C(NCC1CCS(=O)(=O)C1)c1ccc2nsnc2c1 (stereo not given) | 609 s
CCN(CCCNC(=O)C1CCCN(c2ncnc3c2nc2n3CCCCC2)C1)Cc1ccccc1 (stereo not given) | 623 s
CCC1CN2C=NC(N3CCN(C(=O)Nc4ccc(OC)c(F)c4)CC3)=CC2=N1 (stereo not given) | 622 s
COc1ccc(CN2C=C(C(=O)OCc3cccc(OC)c3)C(C)=NS2(=O)=O)cc1 | 1100 s
CCOC(=O)Cc1ccc(NC(=O)NCc2c(C)nn(CC)c2C)cc1 | 649 s
CCOc1ccccc1NC(=O)c1sc(-c2cn(CC)c3ncccc23)nc1C | 1250 s
O=C(CSc1nnc(-c2ccccc2)o1)Nc1nsc(-c2ccccc2)n1 | 793 s
CN(C)CC1(O)CCC2(CCN(C(=O)C3CCCC3)CC2)CC1 | 591 s
Cc1c(Cn2c(C)nc3c(C(=O)O)cc(N4CCOCC4)cc32)cccc1C(F)(F)F | 741 s
CCNC(=O)c1cc(-c2ccccc2)n(C)c1C | 805 s

SMILES | RP-LC retention time
CCC(CC)C(=O)N1C[C@H]2C[C@H](C1)[C@H]1CCCC(=O)N1C2 | 645 s
COc1cccc(S(=O)(=O)N2CCC3(CC2)N(c2ccccc2)C(=O)CS3=O)c1 (stereo not given) | 737 s
COc1ccc(S(=O)(=O)N2CCC(c3noc(-c4ccccc4C)n3)CC2)cc1 | 1150 s
C=CCNC(=O)c1sc(Nc2cccc(C)n2)nc1C | 697 s
COC(=O)c1ccc2c(=O)n(-c3cc(C)cc(C)c3)c(N3CCOCC3)nc2c1 | 1040 s
Cc1ccccc1CN1CCc2nc(N3CCN(c4ccccc4F)CC3)ncc2C1 | 796 s
COc1cc(=O)n2c(c1C(=O)NC1CCCCCCC1)CCCC2 | 734 s
CCOc1cc(=O)c(C(=O)N2CCN(c3ncccn3)CC2)nn1-c1ccc(C)cc1 | 751 s
Cc1cc(N2CCN(C(=O)COc3ccc(Cl)cc3)CC2)nc2nncn12 | 629 s
Cc1nc(C)c(C(=O)Nc2nc(-c3ccc(Br)cc3)cs2)s1 | 1030 s
Cc1ccccc1CC(=O)N1CCCC(COc2ccc(C(=O)N3CCOCC3)cc2)C1 (stereo not given) | 811 s
COCCOc1nc(N)c2[nH]c(=O)n(Cc3ccccc3)c2n1 | 676 s
Cc1nc(-c2ccc3c(c2)CCN3C(=O)Cc2c[nH]c3ccccc23)cs1 | 950 s
COc1ccc(-c2nc3cnccn3c2Nc2ccc(Cl)cc2)cc1OC | 830 s
O=C(Cn1ccn2nc(-c3ccccc3)cc2c1=O)NCc1ccccc1Cl | 817 s
Cc1cc(=O)n(CC(=O)Nc2ccc(F)c(F)c2)c(N2CCOCC2)n1 | 687 s
CCc1nc2cc(-c3noc(C(C)NC(=O)c4ccccc4)n3)ccc2o1 (stereo not given) | 916 s
CCn1cnc(S(=O)(=O)N2CCC(C(=O)N3CCN(c4ccccc4F)CC3)CC2)c1 | 762 s
CC(C)Cn1cc(CCNC(=O)c2c(F)cccc2F)c2cccnc21 | 788 s
N#Cc1cccc(C(=O)N2CCN(c3cc(-c4ccccc4)[nH]n3)CC2)c1 | 749 s
COc1cccc(CN2N=C(C(=O)N3CCOCC3)S(=O)(=O)c3ccccc32)c1 | 800 s
CC1CCN(c2nc(=O)n(CC(=O)Nc3ccc(C(C)C)cc3)c3ccccc23)CC1 | 981 s
O=C(NCc1csc(C2CCN(C(=O)C3CCCO3)CC2)n1)C1CC1 (stereo not given) | 614 s

SMILES | RP-LC retention time
O=C(NCCCN1CCN(Cc2ccccc2)CC1)c1sc2ncccc2c1-n1cccc1 | 646 s
CC(=O)N1CCN(C2=NC(=O)/C(=C\c3ccc(O)c([N+](=O)[O-])c3)S2)CC1 | 589 s
COc1cc(OC)cc(-c2noc(-c3nn(-c4ccc(C)c(C)c4)ccc3=O)n2)c1 | 979 s
Cc1sc(-c2cc(C(F)(F)F)on2)cc1S(=O)(=O)NCC(C)c1ccccc1 (stereo not given) | 1230 s
COC1CCC12CCN(C(=O)C1CCOCC1)CC2 (stereo not given) | 636 s
O=C(NCC1CC1)c1nnn(Cc2ccc(Cl)cc2)c1-n1cccc1 | 1010 s
Fc1cc(-c2cccc3ncc(-c4cnn(C5CCNCC5)c4)nc23)cc(F)c1CN1CCOCC1 | 611 s
CC(C)NC(=O)CCNc1c(-c2ccc(F)cc2)nc2cnccn12 | 616 s
CCn1c(=O)c2ccn(CC(=O)Nc3ccc4c(c3)OCCO4)c2n(CC)c1=O | 701 s
Cc1ccc(CN2N=C(C(=O)N3CCC(C)CC3)S(=O)(=O)c3ccccc32)cc1 | 1060 s
CC1CCCN(CC2CCN(S(=O)(=O)c3ccc(F)cc3Cl)CC2)C1 (stereo not given) | 673 s
Cc1ccc(-c2noc(-c3cccc(S(=O)(=O)Nc4cccc(C#N)c4)c3)n2)cc1 | 1160 s
CN1C(=O)c2cc(S(=O)(=O)Nc3cccc(F)c3)ccc2Oc2cccnc21 | 879 s
Cn1c(=O)c(N2CCC(NC(=O)Nc3ccc4c(c3)OCO4)CC2)nc2ccccc21 | 809 s
CCOc1ccccc1-c1noc(Cn2c(=O)n(-c3cccc(OC)c3)c(=O)c3sccc32)n1 | 964 s
CCOC(=O)c1c(C)c(CCC(=O)NC2CCCCC2)n(C)c1C | 892 s
CCCn1cc(S(=O)(=O)Nc2ccc(F)cc2C)c2cccnc21 | 926 s
C=CCNC(=O)C1CCCN(S(=O)(=O)c2ccc(OC)c(OC)c2)C1 (stereo not given) | 700 s
CCN1CCN(c2cc(C)c3cc(NC(=S)NCc4cc(OC)ccc4OC)ccc3n2)CC1 | 598 s
CN(NC(=O)CC(=O)NN(C)C(=S)c1ccccc1)C(=S)c1ccccc1 | 862 s
CC(C)Cc1cc(-c2nn3c(COc4ccc(F)cc4)nnc3s2)n[nH]1 | 936 s
COc1cc(CN2CCCCCC2c2cccs2)ccc1OCC(N)=O (stereo not given) | 611 s
CC1=C(C(=O)Nc2cccc(C(=O)N3CCN(c4ccccc4)CC3)c2)SCCO1 | 873 s

SMILES | RP-LC retention time
Cc1ccc(NC(=O)Nc2nccn(-c3cccc(Cl)c3)c2=O)cc1F | 1000 s
COC(=O)C1=C(NC(=O)COc2ccc(Cl)cc2Cl)CCS1 | 1110 s
O=C(Cn1cccc1-c1nc(-c2ccc3c(c2)OCO3)no1)NCCC1=CCCCC1 | 1150 s
O=C(NCc1ccc(F)cc1)c1nnc(-c2ccc(S(=O)(=O)N3CCCCC3)cc2)o1 | 1160 s
CCc1cccc(C)c1Nc1c(-c2ccc(Cl)cc2)nc2ncccn12 | 978 s
c1cc2c(cc1-c1noc(CCC3CCCC3)n1)nnn2CCN1CCOCC1 | 780 s
CCc1nc2sc(C)nn2c1S(=O)(=O)N1CCOCC1 | 699 s
Cc1nc(C2(C)CCN(C(=O)CCc3cc(Cl)no3)CC2)no1 | 750 s
CCn1ccc(C(=O)N2CCN(c3nnc4ccc(Cl)cn34)CC2)n1 | 562 s
CCCCC(=O)N1CCCN(C2=NS(=O)(=O)C(c3ccccc3)=C2C)CC1 | 793 s
Cc1ccc(C)c(NC(=O)N(C)CCc2noc(COc3ccccc3)n2)c1 | 934 s
CCOC(=O)CNC(=O)N(C)Cc1nc2cc(C(=O)N(C)C)ccc2n1C | 566 s
O=S(=O)(c1cccc2cccnc12)N1CCc2nc(-c3ccc(Cl)cc3)ncc2C1 | 1140 s
CCOC(=O)NC(=O)c1ccsc1NC(=O)c1ccc([N+](=O)[O-])s1 | 851 s
Cc1ccc(C2Cn3nnc(-c4nc(-c5cccc(F)c5)no4)c3CO2)c(C)c1 (stereo not given) | 1300 s
CC(C)NC(=O)N1CCN(Cc2nc3cccnc3n2-c2cccc(F)c2)CC1 | 609 s
Cc1ccc(NC(=O)C2CCN(S(C)(=O)=O)c3ccccc3O2)cc1C (stereo not given) | 945 s
COCCn1cc2c3c(cccc31)CN(C(=O)Nc1ccc(OC)cc1)CC2 | 833 s
O=C1NC2(CCN(C(=O)NCc3cccc(F)c3)CC2)Nc2cc(Cl)ccc21 | 770 s
CCn1cnc2ccc(-c3noc(COc4ccccc4)n3)cc21 | 742 s
O=C(O)/C(=C/c1ccccc1)c1ccccc1 | 923 s

Source: the METLIN SMRT retention time set (Domingo-Almenara et al. 2019)
